# Test results published in US10632101B2, “Methods and compositions for supporting endogenous systems related to life span” (USANA Health Sciences, Inc., priority 2016, dated 2020).
# Assays:
# Nrf2 = Nrf2 signaling fluorescent reporter assay in human retinal epithelial cell line; type: cell-based; conditions: 100 and 30 μM
# Method: The assays were carried out with a fluorescent reporter assay that utilized a human retinal epithelial cell line. The assays also included validation by RT-PCR (reverse transcription polymerase chain reaction) of Nrf2 target genes. The human retinal epithelial cell line was purchased from ATCC (American Type Cell Culture, Manassas, Va.) and was configured to function as a fluorescent reporter assay. Test solutions of each of the alpha lipoic acid, resveratrol, curcumin, EGCG, Olivol®, rutin, quercetin, and hesperetin were prepared by serial dilution. Control solutions were also prepared. Positive control solutions of a known Nrf2 agonist, L-sulphoraphane was also prepared. Each test solution was then assayed for Nrf2 signaling activity using the fluorescent reporter assay and compared to control assays. The positive control solutions were also tested.
# human PPARα = molecular target: T1, human PPARα (Homo sapiens, UniProt Q07869); assay: PPARα reporter cell assay, agonist mode; type: cell-based
# T1 construct: expressed in transfected cells; host or cells: CHO
# T1 sequence (Q07869 239-466 limits assumed): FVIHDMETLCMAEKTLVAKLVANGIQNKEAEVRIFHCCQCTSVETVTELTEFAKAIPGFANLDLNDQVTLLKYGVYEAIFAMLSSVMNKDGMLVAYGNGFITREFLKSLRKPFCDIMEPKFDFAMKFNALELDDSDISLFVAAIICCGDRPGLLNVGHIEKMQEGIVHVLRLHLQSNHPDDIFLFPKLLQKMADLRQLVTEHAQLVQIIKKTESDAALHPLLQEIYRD
# human PPARδ = molecular target: T2, human PPARδ (Homo sapiens, UniProt Q03181); assay: PPARδ reporter cell assay, agonist mode; type: cell-based
# T2 construct: expressed in transfected cells; host or cells: CHO
# T2 sequence (Q03181 211-439 limits assumed): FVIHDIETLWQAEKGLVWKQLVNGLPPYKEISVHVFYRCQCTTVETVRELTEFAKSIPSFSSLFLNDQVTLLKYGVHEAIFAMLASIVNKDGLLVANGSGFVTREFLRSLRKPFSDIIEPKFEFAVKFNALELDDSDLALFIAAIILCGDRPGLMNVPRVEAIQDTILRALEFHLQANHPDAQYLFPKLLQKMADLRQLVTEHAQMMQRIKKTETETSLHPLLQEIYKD
# C. elegans strain CB5586 = assay: Phenotypic lifespan screening in C. elegans; type: in vivo; conditions: for effect on chronological lifespan: 0.1 and 10 mg/ml tested; for mean lifespan: DMSO control 13.23; for Statistically Significant Result: 10 mg/ml compared to DMSO control
# Method: Dilutions of the test formulations were applied to individual populations of C. elegans and the lifespan of each population was monitored. Any changes in the lifespan of an individual population compared to a control population were recorded and correlated to the respective test formulation (N356 or N357) and the respective dilution (0.1 mg/ml, 1 mg/ml, and 10 mg/ml).
# The N256 and N357 formulations were each prepared as individual 100 mg/ml stock solutions in dimethyl sulfoxide (DMSO). Serial dilutions of each stock solution were then prepared at 0.1 mg/ml, 1 mg/ml, and 10 mg/ml in DMSO. Control solutions of DMSO only were also prepared. Synchronous aged adult populations of C. elegans strain CB5586 worms were prepared. The CB5586 strain comprises a pharyngeal GFP (green fluorescent protein) tag and a mutation in the bus-5 gene. The pharyngeal GFP tag allows for fluorescent images of the worm populations to be taken. The mutation in the bus-5 gene causes the loss of normal cuticle antigens that permits the cuticle of the worms to become permeable to the test formulations and allow direct uptake of the test formulations to avoid interaction of the test formulations with protective mechanisms of the gut channel. Each serial dilution of each test formulation was added to a separate population of the prepared worms. The control solutions were also added to separate populations of the prepared worms. The populations of the prepared worms were then maintained on standard nematode growth media (NGM) agar plates at 20° C. with sufficient food (Escherichia coli strain OP-50).
# Each worm population was then monitored by fluorescent imaging to determine the number of living and dead worms as a function of time. The fluorescent imaging was analyzed by software that recognized and counted worms based on their fluorescent intensity compared to background fluorescence. […] The ability to distinguish between living and dead worms allowed the number of living worms and a cumulative number of dead worms to be monitored against time. Worm populations from a selection of fluorescent images were manually checked to verify that the software had accurately counted the number of living and dead worms.
# The counts of the living and dead worms as a function of time were then analyzed for each of the worm populations and used to prepare Kaplan-Meier survival curves and associated statistics for each of the worm populations. […] The median lifespan is shown as the length of time after the last mitotic division that 50% of the test population remains viable when compared to the control population. The maximum lifespan extension is shown as the length of time after the last mitotic division that 5% of the test population remains viable when compared to the control population.
# The counts of the living and dead worms as a function of time and the Kaplan-Meier survival curves and the associated statistics were then analyzed for each of the worm populations. The analysis included determining mean and median lifespan. The analysis included a non-parametric test, the Log-Rank test, which compares two survival functions for the overall lifespan assay and provides a reliable p-value summarizing the whole experiment. The analysis also included Fisher's Exact Test that calculated the significance of survival function comparisons at multiple specific time points throughout the experiment, rather than for the overall lifespan. The results of the analysis are shown below in Tables 10-17.
# Phenotypic screening was carried out as described in EXAMPLE 2 for various individual compounds of the N357 formulation. […] Alpha lipoic acid was sourced from PureBulk™ USA as a racemic mix of R and S stereoisomers and was assigned a sample number of N198. Hesperidin was sourced from Sigma Aldrich at ≥80% purity and was assigned a sample number of N347. […]
# human NF-κB = assay: NF-κB reporter cell assay, antagonist mode; type: cell-based
# human PPARγ = molecular target: T3, human PPARγ (Homo sapiens, UniProt P37231); assay: PPARγ reporter cell assay, agonist mode; type: cell-based
# T3 construct: expressed in transfected cells; host or cells: CHO
# T3 sequence (P37231 238-503 limits assumed): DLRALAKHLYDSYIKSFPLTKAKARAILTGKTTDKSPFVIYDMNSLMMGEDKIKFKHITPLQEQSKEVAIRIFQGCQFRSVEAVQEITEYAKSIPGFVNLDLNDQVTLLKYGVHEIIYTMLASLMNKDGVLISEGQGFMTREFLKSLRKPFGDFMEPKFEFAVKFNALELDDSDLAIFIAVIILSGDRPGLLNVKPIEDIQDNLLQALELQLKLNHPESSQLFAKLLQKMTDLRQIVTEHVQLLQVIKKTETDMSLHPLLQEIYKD
# [1] = tested on: NF-κB reporter cells (HEK293); assay: Live cell multiplex read-out in the NF-κB antagonist assay; type: cell-based, human; conditions: 1.42 μg/ml
# Method: Various receptor assays were carried out for test compounds corresponding to ingredients of the nutritional supplement composition. In general, the receptor assays utilized reporter cells that either expressed a native receptor or a receptor hybrid. The receptor hybrids were engineered so that the native N-terminal DNA binding domain (DBD) was replaced with a yeast Gal4 DBD. The reporter cells expressed a hybrid receptor comprising either the native receptor (Nrf2 and NF-κB) or the N-terminal Gal4 DNA binding domain fused to the ligand binding domain of the specific human nuclear receptor (PPARα, PPARδ, and PPARγ). The reporter gene (e.g., firefly luciferase) was functionally linked to either upstream receptor-specific response elements (GRE) or the Gal4 upstream activation sequence (UAS). A summary of the receptors, the reporter cells used for each particular receptor assay, and the reference compounds used to confirm performance of the receptor assays are indicated below in Table 4.
# A vehicle control was prepared. […] After incubation, fluorescence was measured to determine a relative number of live cells per test well.
# mTOR = molecular target: T4, mTOR (Homo sapiens, UniProt P42345); conditions: cited from earlier work; for mTOR inhibition: applied to isolated cells in culture
# T4 construct: host or cells: isolated cells in culture (not specified)
smiles,measurement,setting,value
"O=C(O)CCCCC1CCSS1 (racemic) [Alpha lipoic acid, alpha lipoic acid]",activation of Nrf2,Nrf2,demonstrated activation of Nrf2
same,PPARα Fold-Activation,human PPARα; 1.42 μg/ml,1.4
same,PPARα Fold-Activation,human PPARα; 4.25 μg/ml,1.3
same,PPARα Fold-Activation,human PPARα; 12.7 μg/ml,1.2
same,PPARα Fold-Activation,human PPARα; 38.23 μg/ml,1.5
same,PPARα Fold-Activation,human PPARα; 114.70 μg/ml,2.3
same,PPARδ Fold-Activation,human PPARδ; 1.42 μg/ml,1.5
same,PPARδ Fold-Activation,human PPARδ; 4.25 μg/ml,1.1
same,PPARδ Fold-Activation,human PPARδ; 12.7 μg/ml,0.80
same,PPARδ Fold-Activation,human PPARδ; 38.23 μg/ml,0.52
same,PPARδ Fold-Activation,human PPARδ; 114.70 μg/ml,0.29
same,effect on chronological lifespan,C. elegans strain CB5586,significant positive and dose-dependent increase of chronological lifespan
same,NF-κB % Inhibition,human NF-κB; 4.25 μg/ml,−0.70%
same,PPARγ Fold-Activation,human PPARγ; 1.42 μg/ml,1.1
same,PPARγ Fold-Activation,human PPARγ; 4.25 μg/ml,1.1
same,PPARγ Fold-Activation,human PPARγ; 12.7 μg/ml,1.3
same,PPARγ Fold-Activation,human PPARγ; 38.23 μg/ml,1.4
same,PPARγ Fold-Activation,human PPARγ; 114.70 μg/ml,3.4
same,NF-κB % Live Cell,[1],100%
"COc1cc(/C=C/C(=O)CC(=O)/C=C/c2ccc(O)c(OC)c2)ccc1O [Curcumin, curcumin]",PPARα Fold-Activation,human PPARα; 0.007 μg/ml,1.3
same,PPARα Fold-Activation,human PPARα; 0.022 μg/ml,1.3
same,PPARα Fold-Activation,human PPARα; 0.067 μg/ml,1.3
same,PPARα Fold-Activation,human PPARα; 0.20 μg/ml,1.1
same,PPARα Fold-Activation,human PPARα; 0.60 μg/ml,1.0
same,PPARα Fold-Activation,human PPARα; 1.81 μg/ml,0.86
same,PPARδ Fold-Activation,human PPARδ; 0.007 μg/ml,1.2
same,PPARδ Fold-Activation,human PPARδ; 0.022 μg/ml,1.2
same,PPARδ Fold-Activation,human PPARδ; 0.067 μg/ml,1.0
same,PPARδ Fold-Activation,human PPARδ; 0.20 μg/ml,1.2
same,PPARδ Fold-Activation,human PPARδ; 0.60 μg/ml,1.3
same,PPARδ Fold-Activation,human PPARδ; 1.81 μg/ml,1.0
same,NF-κB % Inhibition,human NF-κB; 0.007 μg/ml,−10%
same,NF-κB % Inhibition,human NF-κB; 0.60 μg/ml,30%
same,mTOR inhibition,mTOR,inhibit mTOR
same,"mTOR inhibition, mitophagy and mitochondrial turnover",mTOR,"inhibit mTOR, up-regulate mitophagy, and increase the rate of mitochondrial turnover"
same,PPARγ Fold-Activation,human PPARγ; 0.007 μg/ml,1.0
same,PPARγ Fold-Activation,human PPARγ; 0.022 μg/ml,1.0
same,PPARγ Fold-Activation,human PPARγ; 0.067 μg/ml,0.95
same,PPARγ Fold-Activation,human PPARγ; 0.20 μg/ml,0.96
same,PPARγ Fold-Activation,human PPARγ; 0.60 μg/ml,0.90
same,PPARγ Fold-Activation,human PPARγ; 1.81 μg/ml,1.1
"O=C(O[C@@H]1Cc2c(O)cc(O)cc2O[C@@H]1c1cc(O)c(O)c(O)c1)c1cc(O)c(O)c(O)c1 [EGCG, epigallocatechin gallate]",NF-κB % Inhibition,human NF-κB; 0.033 μg/ml,10%
same,NF-κB % Inhibition,human NF-κB; 0.098 μg/ml,18%
same,NF-κB % Inhibition,human NF-κB; 0.30 μg/ml,0.10%
same,NF-κB % Inhibition,human NF-κB; 0.89 μg/ml,8.4%
same,NF-κB % Inhibition,human NF-κB; 2.67 μg/ml,−15%
same,NF-κB % Inhibition,human NF-κB; 8 μg/ml,−29%
same,mTOR inhibition,mTOR,inhibit mTOR
same,"mTOR inhibition, mitophagy and mitochondrial turnover",mTOR,"inhibit mTOR, up-regulate mitophagy, and increase the rate of mitochondrial turnover"
"COc1ccc([C@@H]2CC(=O)c3c(O)cc(O)cc3O2)cc1O [Hesperetin, (S)-2,3-Dihydro-5,7-dihydroxy-2-(3-hydroxy-4-methoxyphenyl)-4H-1-benzopyran-4-one]",PPARα Fold-Activation,human PPARα; 0.043 μg/ml,1.4
same,PPARα Fold-Activation,human PPARα; 0.389 μg/ml,1.2
same,PPARα Fold-Activation,human PPARα; 1.167 μg/ml,1.0
same,PPARα Fold-Activation,human PPARα; 3.5 μg/ml,0.79
same,PPARδ Fold-Activation,human PPARδ; 0.043 μg/ml,1.1
same,PPARδ Fold-Activation,human PPARδ; 0.389 μg/ml,1.0
same,PPARδ Fold-Activation,human PPARδ; 1.167 μg/ml,1.1
same,PPARδ Fold-Activation,human PPARδ; 3.5 μg/ml,0.89
same,PPARγ Fold-Activation,human PPARγ; 0.043 μg/ml,1.0
same,PPARγ Fold-Activation,human PPARγ; 0.389 μg/ml,1.1
same,PPARγ Fold-Activation,human PPARγ; 1.167 μg/ml,1.1
same,PPARγ Fold-Activation,human PPARγ; 3.5 μg/ml,0.55
"COc1ccc([C@@H]2CC(=O)c3c(O)cc(O[C@@H]4O[C@H](CO[C@@H]5O[C@@H](C)[C@H](O)[C@@H](O)[C@H]5O)[C@@H](O)[C@H](O)[C@H]4O)cc3O2)cc1O [N347, Hesperidin]",extension of lifespan (Kaplan-Meier figure),C. elegans strain CB5586; 0.1 mg/ml,about 10%
same,% Change in Mean Lifespan,C. elegans strain CB5586; 0.1 mg/ml compared to DMSO control,+10%
same,mean lifespan,C. elegans strain CB5586; 0.1 mg/ml,14.55 days
same,Statistically Significant Result,C. elegans strain CB5586,No statistical difference
same,mean lifespan,C. elegans strain CB5586; 10 mg/ml,14.19 days
same,effect on chronological lifespan,C. elegans strain CB5586,significant positive and dose-dependent increase of chronological lifespan
"O=c1c(O)c(-c2ccc(O)c(O)c2)oc2cc(O)cc(O)c12 [Quercetin, 2-(3,4-dihydroxyphenyl)-3,5,7-trihydroxy-4H-chromen-4-one]",Statistically Significant Result,C. elegans strain CB5586,No statistical difference
same,effect on chronological lifespan,C. elegans strain CB5586,significant negative effect on chronological lifespan
same,NF-κB % Inhibition,human NF-κB; 0.84 μg/ml,−6%
"C[C@@H]1O[C@@H](OC[C@H]2O[C@@H](Oc3c(-c4ccc(O)c(O)c4)oc4cc(O)cc(O)c4c3=O)[C@H](O)[C@@H](O)[C@@H]2O)[C@H](O)[C@H](O)[C@H]1O [Rutin, 2-(3,4-dihydroxyphenyl)-5,7-dihydroxy-3-[α-L-rhamnopyranosyl-(1→6)-β-D-glucopyranosyloxy]-4H-chromen-4-one]",NF-κB % Inhibition,human NF-κB; 1.11 μg/ml,10%
Cn1c(=O)c2c(ncn2C)n(C)c1=O [caffeine],mTOR inhibition,mTOR,inhibit mTOR
same,"mTOR inhibition, mitophagy and mitochondrial turnover",mTOR,"inhibit mTOR, up-regulate mitophagy, and increase the rate of mitochondrial turnover"
